Measurements as given in ChEMBL document CHEMBL3400074, “Development of 2-amino-5-phenylthiophene-3-carboxamide derivatives as novel inhibitors of Mycobacterium tuberculosis DNA GyrB domain” (Bioorg Med Chem, 2015).
In brackets after ≈: the same amount, converted by molar mass.

Tested on: Mycobacterium tuberculosis
Test: Antibacterial activity against multidrug-resistant Mycobacterium tuberculosis H37Rv ATCC 27294 after 28 days by agar dilution method
Assay type: functional
Details: H37Rv ATCC 27294, 672 h

SMILES	MIC
NC(=O)c1cc(-c2ccccc2)sc1NC(=O)c1cnccn1	38.6 µM (≈ 12.5 µg/mL)
CC(C)NC(=O)Nc1sc(-c2ccccc2)cc1C(N)=O	10.2 µM (≈ 3.11 µg/mL)
CCC(=O)Nc1sc(-c2ccccc2)cc1C(N)=O	22.8 µM (≈ 6.26 µg/mL)
NC(=O)c1cc(-c2ccccc2)sc1NC(=O)Nc1ccc([N+](=O)[O-])cc1	16.3 µM (≈ 6.24 µg/mL)
NC(=O)c1cc(-c2ccccc2)sc1NC(=S)Nc1ccccc1	70.8 µM (≈ 25 µg/mL)
CC1COc2c(N3CCN(C)CC3)c(F)cc3c(=O)c(C(=O)O)cn1c23 (configuration not stated) [OFLOXACIN]	2.16 µM (≈ 0.781 µg/mL)
NC(=O)c1cc(-c2ccccc2)sc1NC(=O)c1ccccc1	4.84 µM (≈ 1.56 µg/mL)
NC(=O)c1cc(-c2ccccc2)sc1NC(=S)Nc1ccc(Cl)cc1	80.7 µM (≈ 31.3 µg/mL)
NC(=O)c1cc(-c2ccccc2)sc1NC(=O)C1CCCC1	39.7 µM (≈ 12.5 µg/mL)
CCCC(=O)Nc1sc(-c2ccccc2)cc1C(N)=O	10.8 µM (≈ 3.13 µg/mL)
NC(=O)c1cc(-c2ccccc2)sc1NC(=S)NCc1ccccc1	34 µM (≈ 12.5 µg/mL)
NC(=O)c1cc(-c2ccccc2)sc1NC(=S)Nc1ccc(F)cc1	67.4 µM (≈ 25 µg/mL)
NC(=O)c1cc(-c2ccccc2)sc1NC(=O)c1ccc(Oc2ccccc2)cc1	15.1 µM (≈ 6.25 µg/mL)
NC(=O)c1cc(-c2ccccc2)sc1NC(=S)Nc1ccc([N+](=O)[O-])cc1	78.5 µM (≈ 31.3 µg/mL)
NC(=O)c1cc(-c2ccccc2)sc1NC(=O)Nc1ccc(Br)cc1	15 µM (≈ 6.25 µg/mL)
CC(C)NC(=S)Nc1sc(-c2ccccc2)cc1C(N)=O	19.6 µM (≈ 6.26 µg/mL)

SMILES	MIC
NC(=O)c1cc(-c2ccccc2)sc1NC(=O)c1cc2ccccc2[nH]1	34.6 µM (≈ 12.5 µg/mL)
NC(=O)c1cc(-c2ccccc2)sc1NC(=O)Nc1ccccc1	9.27 µM (≈ 3.13 µg/mL)
NNC(=O)c1ccncc1 [ISONIAZID]	0.66 µM (≈ 0.0905 µg/mL)
CC[C@@H](CO)NCCN[C@@H](CC)CO [ETHAMBUTOL]	7.64 µM (≈ 1.56 µg/mL)
CO[C@H]1/C=C/O[C@@]2(C)Oc3c(C)c(O)c4c(O)c(c(/C=N/N5CCN(C)CC5)c(O)c4c3C2=O)NC(=O)/C(C)=C\C=C\[C@H](C)[C@H](O)[C@@H](C)[C@@H](O)[C@@H](C)[C@H](OC(C)=O)[C@@H]1C [RIFAMPIN]	0.23 µM (≈ 0.189 µg/mL)
NC(=O)c1cc(-c2ccccc2)sc1NC(=O)c1cccc2ccccc12	25 µM (≈ 9.3 µg/mL)
NC(=O)c1cc(-c2ccccc2)sc1NC(=O)Nc1ccc(Cl)cc1	8.42 µM (≈ 3.13 µg/mL)
NC(=O)c1cc(-c2ccccc2)sc1NC(=O)c1ccc([N+](=O)[O-])cc1	8.48 µM (≈ 3.12 µg/mL)
CC(=O)Nc1sc(-c2ccccc2)cc1C(N)=O	24 µM (≈ 6.26 µg/mL)
Cc1ccc(NC(=O)Nc2sc(-c3ccccc3)cc2C(N)=O)cc1	35.6 µM (≈ 12.5 µg/mL)
NC(=O)c1cc(-c2ccccc2)sc1NC(=O)c1ccc(Cl)cc1	8.76 µM (≈ 3.13 µg/mL)
Cc1ccc(NC(=S)Nc2sc(-c3ccccc3)cc2C(N)=O)cc1	8.5 µM (≈ 3.12 µg/mL)
NC(=O)c1cc(-c2ccccc2)sc1NC(=S)Nc1ccc(Br)cc1	18 µM (≈ 7.78 µg/mL)
NC(=O)c1cc(-c2ccccc2)sc1NC(=O)NCc1ccccc1	18.5 µM (≈ 6.5 µg/mL)
NC(=O)c1cc(-c2ccccc2)sc1NC(=O)Nc1ccc(F)cc1	17.6 µM (≈ 6.25 µg/mL)
NC(=O)c1cc(-c2ccccc2)sc1NC(=O)C1CCCCC1	9.48 µM (≈ 3.11 µg/mL)
